Literature values, collected in US9675603B2, “Solid pharmaceutical compositions of ppary modulator” (InteKrin Therapeutics, Inc., priority 2010, dated 2017).

Solubility (in aqueous solvents and in most organic solvents): sparingly soluble
SMILES: O=S(=O)(Nc1cc(Cl)c(Oc2cnc3ccccc3c2)c(Cl)c1)c1ccc(Cl)cc1Cl.O=S(=O)(O)c1ccccc1 [besylate salt of compound 101, 2,4-Dichloro-N-[3,5-dichloro-4-(quinolin-3-yloxy)-phenyl]-benzenesulfonamide benzenesulfonate salt]
Stability and hygroscopic properties (compared to other salts of compound 101, U.S. Pat. No. 7,223,761 B2): superior stability and hygroscopic properties
